Experiment [1] deals with T1, CDK4/cyclin D3 (Homo sapiens, UniProt P11802).
T1 construct: purchased Carna Biosciences, Inc. QS S Assist CDK4/Cyclin D3_FP Kit
Put plainly: Human CDK4/cyclin D3 inhibitory activity (QS S Assist CDK4/Cyclin D3_FP Kit, IMAP fluorescence polarization). The experiment is classed as biochemical. The following applies: Human CDK4/cyclin D3 inhibitory activity; read-out: CDK4 Activity symbol. Summed up:
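IMAP fluorescence polarization kit: CDK4/cyclin D3 at 12.5-25 ng/well with kit ATP/substrate/metal mix in 20 mM HEPES pH 7.4, 0.01% Tween20, 2 mM DTT, 45 min at room temperature. FP read at 485/535 nm after 30 min binding; IC50 from dose-response fit of percent inhibition versus enzyme and no-enzyme controls.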
(In general: Polarisation of emitted light reports the rotation of a fluorescent probe.)

Experiment [2] deals with T2, CDK2/cyclin A2 (Homo sapiens, UniProt P24941).
T2 construct: purchased Carna Biosciences, Inc. QS S Assist CDK2/Cyclin A2_FP Kit
Description: Human CDK2/cyclin A2 inhibitory activity (QS S Assist CDK2/Cyclin A2_FP Kit, IMAP fluorescence polarization). It counts as biochemical. Particulars: Human CDK2/cyclin A2 inhibitory activity; read-out: CDK2 Activity symbol. Summed up:
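Kinase activity read as fluorescence polarization (485/535 nm) after phosphorylated fluorescent substrate binds IMAP reagent (30 min, RT, dark). Enzyme (2.5 ng/well) reacted 60 min at RT with ATP/substrate/metal in HEPES pH 7.4 buffer with Tween 20 and DTT; no-enzyme wells define 0% activity; IC50 by curve fit.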

Where only a bound is given, the exact number is not on record here.

T1 sequence (P11802 whole entry): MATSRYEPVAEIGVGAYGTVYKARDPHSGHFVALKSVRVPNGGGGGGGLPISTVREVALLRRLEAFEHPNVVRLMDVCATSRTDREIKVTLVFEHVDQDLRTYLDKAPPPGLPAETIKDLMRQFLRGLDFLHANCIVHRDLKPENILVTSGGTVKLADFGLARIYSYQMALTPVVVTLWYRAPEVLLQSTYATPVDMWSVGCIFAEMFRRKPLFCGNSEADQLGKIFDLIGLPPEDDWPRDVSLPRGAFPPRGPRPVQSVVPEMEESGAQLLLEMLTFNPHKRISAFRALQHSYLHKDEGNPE
T1 sequence (P30281 whole entry partner): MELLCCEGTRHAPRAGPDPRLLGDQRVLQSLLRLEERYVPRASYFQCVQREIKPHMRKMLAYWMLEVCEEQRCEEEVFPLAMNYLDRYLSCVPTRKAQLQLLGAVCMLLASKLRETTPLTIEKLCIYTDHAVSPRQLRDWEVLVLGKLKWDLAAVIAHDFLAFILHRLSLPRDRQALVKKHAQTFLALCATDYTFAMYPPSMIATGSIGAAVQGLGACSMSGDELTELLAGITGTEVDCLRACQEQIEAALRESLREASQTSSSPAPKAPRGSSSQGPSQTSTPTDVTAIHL

Take `C[C@@H](O)c1cc2cnc(Nc3ccc(CN4CCNCC4)cn3)nc2c(NC2CCOCC2)n1` [Compound 255]: the values for the IC50 in experiment [1] and in experiment [2] were below 0.01 µM and at least 0.1 µM, respectively.
In the same order, the values of `C[C@@H](O)c1cc2cnc(Nc3ccc(CN4CCNCC4)cn3)nc2c(N[C@H]2CCCOC2)n1` [Compound 256] are below 0.01 µM and at least 0.1 µM.
In the case of `C[C@@H](O)c1cc2cnc(Nc3ccc(CN4CCNCC4)cn3)nc2c(N[C@@H]2CCCOC2)n1` [Compound 257], the IC50 in experiment [1] is below 0.01 µM; in experiment [2] it was at least 0.1 µM.
For the molecule `C[C@@H](O)c1cc2cnc(Nc3ccc(CN4CCNCC4)cn3)nc2c(N[C@H]2CCOC2)n1` [Compound 258], the IC50 in experiment [1] is below 0.01 µM; in experiment [2], at least 0.1 µM.
For the molecule `C[C@@H](O)c1cc2cnc(Nc3ccc(CN4CCNCC4)cn3)nc2c(N[C@@H]2CCOC2)n1` [Compound 259], the IC50 in experiment [1] was below 0.01 µM; in experiment [2] it was at least 0.1 µM.
The like results for `CC(C)Nc1nc([C@@H](C)O)cc2cnc(Nc3ccc(N4CCC(O)CC4)nn3)nc12` [Compound 260] were, in that order, below 0.01 µM and at least 0.1 µM.
The like results for `CC(C)Nc1nc([C@@H](C)O)cc2cnc(Nc3ccc(N4CCNCC4)nn3)nc12` [Compound 261, (R)-1-(8-(isopropylamino)-2-((6-(piperazin-1-yl)pyridazin-3-yl)amino)pyrido[3,4-d]pyrimidin-6-yl)ethanol] were, in that order, below 0.01 µM and at least 0.1 µM.
The like results for `CC(C)Nc1nc([C@@H](C)O)cc2cnc(Nc3ccc(CN4CCNCC4=O)cn3)nc12` [Compound 262] were, in that order, 0.01 to 0.1 µM and at least 0.1 µM.
Take `CNCC(C)(C)c1ccc(Nc2ncc3cc([C@@H](C)O)nc(NC(C)C)c3n2)nc1` [Compound 263]: the values for the IC50 in experiment [1] and in experiment [2] were below 0.01 µM and at least 0.1 µM, respectively.
In the same order, the values of `CNCC(C)(C)c1ccc(Nc2ncc3cc([C@@H](C)O)nc(NC(C)(C)COC)c3n2)nc1` [Compound 264] are below 0.01 µM and at least 0.1 µM.
The like results for `COCC(C)(C)Nc1nc([C@@H](C)O)cc2cnc(Nc3ccc(C(C)N4CCNCC4)cn3)nc12` (stereo partly drawn) [Compound 265] were, in that order, below 0.01 µM and at least 0.1 µM.
In the case of `CO[C@H](C)c1cc2cnc(Nc3ccc(C(C)N4CCNCC4)cn3)nc2c(NC(C)C)n1` (stereo partly drawn) [Compound 266], the IC50 in experiment [1] is below 0.01 µM; in experiment [2], at least 0.1 µM.
For `CO[C@H](C)c1cc2cnc(Nc3ccc(N4CC[C@H](O)CC4=O)cn3)nc2c(NC(C)C)n1` [Compound 267], the IC50 in experiment [1] was below 0.01 µM; in experiment [2], at least 0.1 µM.
In the same order, the values of `COCC(C)(C)Nc1nc([C@@H](C)O)cc2cnc(Nc3ccc(N4CC[C@H](O)CC4=O)cn3)nc12` [Compound 268] are 0.01 to 0.1 µM and at least 0.1 µM.
As for `CC(C)Oc1nc(C(C)O)cc2cnc(Nc3ccc(N4CCNCC4)nn3)nc12` (stereo not drawn) [Compound 269], the figures for the IC50 in experiment [1] and in experiment [2] were below 0.01 µM and at least 0.1 µM, respectively.
In the same order, the values of `CO[C@H](C)c1cc2cnc(Nc3ccc(CN4CC[C@@H](O)C4)cn3)nc2c(NC(C)C)n1` [Compound 270] are below 0.01 µM and at least 0.1 µM.
In the same order, the values of `CO[C@H](C)c1cc2cnc(Nc3ccc(CN4CC[C@@H](F)C4)cn3)nc2c(NC(C)C)n1` [Compound 271] are below 0.01 µM and at least 0.1 µM.
The like results for `CO[C@H](C)c1cc2cnc(Nc3ccc(CN4CC5CC(C4)O5)cn3)nc2c(NC(C)C)n1` [Compound 272] were, in that order, below 0.01 µM and at least 0.1 µM.
Regarding `CO[C@H](C)c1cc2cnc(Nc3ccc(CN4CCCOCC4)cn3)nc2c(NC(C)C)n1` [Compound 273], the figures for the IC50 in experiment [1] and in experiment [2] were below 0.01 µM and at least 0.1 µM, respectively.
Consider `COC1CCN(Cc2ccc(Nc3ncc4cc([C@@H](C)OC)nc(NC(C)C)c4n3)nc2)CC1` [Compound 274], for which the IC50 in experiment [1] was below 0.01 µM; in experiment [2] it was at least 0.1 µM.
`CO[C@H](C)c1cc2cnc(Nc3ccc(CN4CCn5ccnc5C4)cn3)nc2c(NC(C)C)n1` [Compound 275]: the IC50 was 0.01 to 0.1 µM in experiment [1] and at least 0.1 µM in experiment [2].

The record behind these values is US10124004B2, “Pyrido[3,4-d]pyrimidine derivative and pharmaceutically acceptable salt thereof” (Teijin Pharma Limited, priority 2015, dated 2018).
